Source: US9428815B2, “HIV-1 reverse transcriptase codon deletion and its use in the management and treatment of HIV infections” (Emory University, priority 2007, dated 2016)

Key:
[1] = tested on: HIVs68Δ-23 (S68del virus isolated at week 23); assay: 3H-TTP RT incorporation assay, drug susceptibility of in vitro-selected S68del virus in human PBM cells; assay type: cell-based, HIV-1; conditions: for EC50 / EC90: HIVs68Δ-23 in human PBM cells, averages of 2-6 independent experiments; for resistance of S68del (in words): S68del mutant HIV, summary statement
Protocol: Peripheral blood mononuclear (PBM) cells were separated by ficoll-hypaque (Histopaque 1077: Sigma) density gradient centrifugation from Buffy coats obtained from the American Red Cross (Atlanta, Ga.). Buffy coats were derived from healthy seronegative donors. Cells were activated with 3 μg/ml phytohaemagglutinin A (Sigma-Aldrich, St. Louis, Mo.) in 500 ml of RPMI-1640 (Mediatech Inc., Herndon, Va.) containing 100 ml heat-inactivated fetal bovine serum (Hyclone), 83.3 IU/ml penicillin, 83.3 μg/ml streptomycin, 1.6 mM L-glutamine (Mediatech Inc., Herndon, Va.), for 2-3 days prior to use.
Drug resistance of the S68del virus isolated at week 23 (HIVs68Δ-23) was measured with the 3H-TTP RT incorporation assay in human PBM cells (Schinazi, et al., Antimicrob. Agents Chemother. 1990; 34:1061-1067; Stuyver et al., Antimicrob. Agents Chemother. 2002; 46:3854-60). HIVs68Δ-23 was population sequenced to ensure the dominant population was the deletion at codon 68. […] The susceptibility of the S68del virus to several nucleoside reverse transcriptase inhibitors (NRTI), a non-nucleoside reverse transcriptase inhibitor (NNRTI) and a protease inhibitor (PI) was tested. Fold increases were measured relative to HIVLAI (Table 4, FIGS. 2 and 3). Data are the averages of 2-6 independent experiments.

[2] = biological target: T1, RT from virally-derived S68del (Human immunodeficiency virus type 1 group M subtype B, UniProt P03367, DEL667-667); assay: Heteropolymeric-DNA colorimetric RT assay with 3.2 mM ATP, particle-derived S68del RT; assay type: biochemical, HIV-1; conditions: for fold increase in resistance: virally-derived S68del RT, relative to HIVLAI, enzymatic assay
T1 construct: The resistance of RT derived from S68del and M184V particles; made in house; host or cells: crude virus pellet; the virus was passaged in human PBM cells
Description: (§1) The principle and performance of the non-radioactive RT assay has been described (Lennerstrand et al., Antimicrob. Agents Chemother. 2007; 51:2078-2084). Separate kit components, such as covalently-linked DNA microtiter plates and tracer solution (alkaline phosphate (AP)-conjugated anti-BrdU antibody) were obtained from Cavidi Tech, Uppsala, Sweden. In brief, the 96-well microtiter plate used consisted of an 18 base heteropolymeric DNA primer covalently bound to the well. In the RT assay, the DNA primer is bound to a 50-base DNA template at 50 ng/well (190 nM) with a 5′-A12-3′ tail with a 5′-(GTCA)5-3′ repeat (Integrated DNA Technologies, USA). The RT assay reaction mixture (total volume 150 μl/well) contained: Hepes 50 mM, pH 7.3; MgCl2 10 mM; Triton X-100 0.5%; bovine serum albumin 0.1 mg/ml; dATP, dGTP, dCTP and 5-bromo-2′-deoxyuridine-5′-triphosphate (BrdUTP) at 1.0 μM each (where BrdUTP replaces TTP) (Sigma). To obtain ATP primer unblocking reaction in the assay, the ATP (Amersham/GE Health Care) was set to physiological concentration (3.2 mM). However, the ATP was only used in the assay with virus pellets as sample, not merely for primer unblocking reaction but to protect degradation of substrate in the crude sample. Furthermore, the dNTP level including BrdUTP was increased from 1 μM to 4 μM for the assay with the virus pellet samples. Subsequently, in the assay with recombinant purified RT enzyme, no ATP besides 1 μM dNTP was used.
(§2) The reaction was started with the addition of RT either as recombinant or crude virus pellet form in a similar activity range as previous published (Lennerstrand et al., Antimicrob. Agents Chemother. 2007; 51:2078-2084). The RT reaction mixture was incubated at 33° C. for 180 min and terminated by NaOH (to dehybridize the template) and water washing of the plates.

[3] = biological target: RT derived from M184V particles (Human immunodeficiency virus type 1 group M subtype B, UniProt P03367, M783V); conditions: particle-derived RT, 3.2 mM ATP, FIG. 5
Description: as §1, with “Subsequently, in the assay with recombinant purified RT enzyme, no ATP besides 1 μM dNTP was used.” left out

[4] = biological target: T2, Wild type Reverse Transcriptase (Human immunodeficiency virus type 1 group M subtype B, UniProt P12497); assay: Heteropolymeric DNA polymerase RT assay in the absence of ATP, wild type RT; assay type: biochemical, HIV-1; conditions: for IC50: Wild type RT; for Fold-incr: Wild type RT (reference)
T2 construct: The level of resistance to NRTI-TP by the S68del mutants compared to wild type RT
Protocol: The level of resistance to NRTI-TP by the S68del mutants compared to wild type RT was determined as IC50 values of RT activity in the absence of ATP (Table 6). […] The RT activity was linear during the assay time within the substrate range used, and thus steady state kinetics were assumed.

[5] = biological target: T3, Recombinant S68del Reverse Transcriptase (Human immunodeficiency virus type 1 group M subtype B, UniProt P12497, DEL655-655); assay: Heteropolymeric DNA polymerase RT assay in the absence of ATP, recombinant S68del RT; assay type: biochemical, HIV-1
T3 construct: The amplified PCR product comprising the RT of pNL4-3 was ligated into the linearized pQE60; inferred from the pQE60 vector and the in-frame BglII site of the reverse primer without a stop codon) (C); made in house; host or cells: bacteria
Protocol: (§3) Nucleic acids were separated by gel electrophoresis in a TAE gel and extracted from bands using the Qiagen gel extraction kit. The 4.2 kb band from pNL4-3 containing the HIV-RT encoding sequences was ligated into the linearized pCR2.1, making the construct MC002. Site directed mutagenesis was performed on the MC002 plasmid. Primers used had the S68 codon AGT deleted, thus introducing the S68 deletion into the pNL4-3 RT background.
(§4) To ligate the RT of pNL4-3 comprising the deletion at S68 codon 68 into protein expression vector […] (Invitrogen), MC002 was amplified using forward primer 5′-[…]-3′ (SEQ ID NO: 10) and reverse primer 5′-[…] […]-3′ (SEQ ID NO: 11). The PCR product and pQE60 were digested with Bgl II and Nco I. The digested products were separated by gel electrophoresis nucleic acids in excised gel bands extracted using the Qiagen gel extraction kit. The amplified PCR product comprising the RT of pNL4-3 was ligated into the linearized pQE60. The ligation mix was transformed into chemically competent bacteria (Alpha-select). Plasmid DNA from selected transformants was extracted using a mini-prep kit (Qiagen). Plasmid DNA was sequenced in both directions to confirm the ligation.
as §1, §2

[6] = tested on: Recombinant S68del Reverse Transcriptase; assay: as above; assay type: biochemical, HIV-1; conditions: Recombinant S68del RT IC50 divided by wild type IC50
Protocol: as §3, §4, §1, §2

[7] = tested on: pNL4-3; assay: Quantitative HIV-1 real-time PCR assay in human PBM cells, pNL4-3 virus; assay type: cell-based; conditions: Human immunodeficiency virus 1, PBMC, pNL4-3 in human PBM cells
Description: The real-time PCR assay for quantifying virus levels in PBM cells serves as a more sensitive method for measuring drug resistance of S68del HIV-1 than other standard methods. SK38 Primer: ATAATCCACCTATCCCAGTAGGAGAAAT (SEQ ID NO: 1) and SK39 Primer: TTTGGTCCTTGTCTTATGTCCAGAATGC (SEQ ID NO: 2) were used in the real-time PCR assay. The presence of amplified product was detected with the SK19 probe: ATCCTGGGATTAAATAAAATAGTAAGAATGTATAG (SEQ ID NO: 3). […] Four concentrations were tested in duplicate for each data point.

[8] = Human immunodeficiency virus 1, PBMC

For `Nc1nc(=O)n([C@@H]2CS[C@H](CO)O2)cc1F` (relative stereo) [(−)-FTC, cis-2-hydroxymethyl-5-(5-fluorocytosin-1-yl)-1,3-oxathiolane], the EC50 [1, 8] was 300 nM, the EC90 [1, 8] was 1100 nM and the “resistance of S68del RT (in words)” value ([2]; particle-derived RT, 3.2 mM ATP, FIG. 5) was “increased resistance”. For the same compound, the “resistance of M184V RT (in words)” value [3] was “increased resistance”.
For `Nc1nc(=O)n(C2CSC(COP(=O)(O)OP(=O)(O)OP(=O)(O)O)O2)cc1F` (single isomer, unassigned; (-)) [(−)FTC-TP], the “fold increase in resistance” value [2] was 10 fold, the IC50 [4] was 3500 ± 300 nM and the Fold-incr [4] was 1.0. It also gave an IC50 [5] of 27000 ± 2000 nM and a Fold-incr [6] of 7.7.
In the case of `Nc1nc2c(ncn2C2COC(CO)O2)c(=O)[nH]1` (single isomer, unassigned; (-)) [DXG, (−)-9-(beta-D-dioxolane)guanine], the EC50 [1] is reported as 1600 nM, the EC90 [1] is reported as 5100 nM and the “FI EC50 (fold increase in 50% effective concentration)” value ([1]; HIVs68Δ-23 relative to HIVLAI) is reported as 6.2. The “FI EC90 (fold increase in 90% effective concentration)” value ([1]; HIVs68Δ-23 relative to HIVLAI) was 3.7.
Compound `Nc1ccn([C@@H]2CS[C@H](CO)O2)c(=O)n1` [3TC, (−)-cis-2-hydroxymethyl-5-(cytosin-1-yl)-1,3-oxathiolane] has an EC50 [1, 8] of 880 nM and an EC90 [1, 8] of 3300 nM.
`Cc1cn([C@H]2C[C@H](N=[N+]=[N-])[C@@H](CO)O2)c(=O)[nH]c1=O` [AZT, 3′-azido-3′-deoxythymidine] was tested, and the EC50 [1, 8] was 3.8 nM, the EC90 [1, 8] was 14 nM and the “resistance of S68del (in words)” value [1] was “does not show increased resistance”. For the same compound, the EC50 [7] was 130 nM and the EC90 [7] was 330 nM.
With `Cc1cn(C2CC(N=[N+]=[N-])C(COP(=O)(O)OP(=O)(O)OP(=O)(O)O)O2)c(=O)[nH]c1=O` (stereo not drawn) [AZT-TP] the “fold increase in resistance” value [2] was 2.5 fold, the IC50 [4] was 270 ± 20 nM and the Fold-incr [4] was 1.0. The IC50 [5] was 700 ± 100 nM and the Fold-incr [6] was 2.6.
`Nc1nc(NC2CC2)c2ncn([C@H]3C=C[C@@H](CO)C3)c2n1.O=C(O)CCC(=O)O` [Abacavir, (1S,4R)-4-[2-amino-6-(cyclopropyl-amino)-9H-purin-9-yl]-2-cyclopentene-1-methanol succinate] showed an EC50 [1, 8] of 3900 nM and an EC90 [1, 8] of 11300 nM.
`Cc1cn([C@H]2C=C[C@@H](CO)O2)c(=O)[nH]c1=O` [D4T, 2′,3′-dideoxy-2′,3′-didehydrothymidine] was tested, and the EC50 [1, 8] was 410 nM, the EC90 [1, 8] was 1500 nM and the “resistance of S68del (in words)” value [1] was “does not show increased resistance”.
